Data from patent US20250340574A1, “MODULATORS OF CYSTIC FIBROSIS TRANSMEMBRANE CONDUCTANCE REGULATOR” (Vertex Pharmaceuticals Incorporated, priority 2022, published 2025).

Molecular target: T1, CFTR (F508del/MF-HBE cells) (Homo sapiens, UniProt P13569, DEL508-508)
T1 construct: human bronchial epithelial (HBE) cells derived from CF subjects heterozygous for F508del and a minimal function CFTR mutation (F508del/MF-HBE); endogenous in cells; host or cells: Primary human bronchial epithelial cells from CF subjects (F508del/MF genotype), differentiated at an air-liquid interface
T1 sequence (P13569 with tags, fused parts or gaps DEL508-508): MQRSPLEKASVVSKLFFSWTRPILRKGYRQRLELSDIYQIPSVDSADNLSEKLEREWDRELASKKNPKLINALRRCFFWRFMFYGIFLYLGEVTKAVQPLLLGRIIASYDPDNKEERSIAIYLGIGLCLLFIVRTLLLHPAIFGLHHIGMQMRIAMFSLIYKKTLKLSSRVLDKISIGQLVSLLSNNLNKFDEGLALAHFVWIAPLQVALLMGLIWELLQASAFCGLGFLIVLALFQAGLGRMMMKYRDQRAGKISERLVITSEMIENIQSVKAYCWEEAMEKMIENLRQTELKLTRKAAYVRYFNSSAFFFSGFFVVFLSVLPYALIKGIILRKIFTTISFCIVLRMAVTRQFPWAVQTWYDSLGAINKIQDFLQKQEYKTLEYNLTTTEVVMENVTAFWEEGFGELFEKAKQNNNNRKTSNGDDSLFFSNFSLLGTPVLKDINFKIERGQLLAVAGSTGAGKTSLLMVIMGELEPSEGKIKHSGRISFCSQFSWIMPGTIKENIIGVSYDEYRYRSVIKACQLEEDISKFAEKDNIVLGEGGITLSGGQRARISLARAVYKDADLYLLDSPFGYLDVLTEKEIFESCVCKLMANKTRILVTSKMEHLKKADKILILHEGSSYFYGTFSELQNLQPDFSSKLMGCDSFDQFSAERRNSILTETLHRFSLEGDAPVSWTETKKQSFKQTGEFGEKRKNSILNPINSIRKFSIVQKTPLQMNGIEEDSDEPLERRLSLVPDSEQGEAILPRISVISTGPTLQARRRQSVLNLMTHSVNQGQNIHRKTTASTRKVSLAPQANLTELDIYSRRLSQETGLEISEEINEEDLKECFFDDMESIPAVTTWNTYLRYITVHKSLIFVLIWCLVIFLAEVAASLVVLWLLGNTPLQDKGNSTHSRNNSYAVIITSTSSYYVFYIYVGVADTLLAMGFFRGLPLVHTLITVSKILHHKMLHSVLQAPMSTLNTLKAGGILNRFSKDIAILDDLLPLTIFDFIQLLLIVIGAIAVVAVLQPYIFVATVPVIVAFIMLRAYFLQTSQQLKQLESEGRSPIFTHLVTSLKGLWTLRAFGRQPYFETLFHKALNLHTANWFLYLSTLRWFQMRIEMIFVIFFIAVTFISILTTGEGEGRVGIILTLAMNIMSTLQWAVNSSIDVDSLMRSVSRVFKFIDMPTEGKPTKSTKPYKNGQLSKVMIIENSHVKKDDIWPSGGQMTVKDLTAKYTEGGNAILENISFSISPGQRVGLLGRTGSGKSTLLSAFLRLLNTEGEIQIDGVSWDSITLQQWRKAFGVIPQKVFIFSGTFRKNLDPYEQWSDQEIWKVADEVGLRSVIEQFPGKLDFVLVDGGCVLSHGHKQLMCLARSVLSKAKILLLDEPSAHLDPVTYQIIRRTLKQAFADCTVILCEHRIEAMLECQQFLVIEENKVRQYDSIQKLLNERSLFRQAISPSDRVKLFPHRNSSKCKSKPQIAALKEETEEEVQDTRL
Assay: Ussing chamber assay of CFTR-mediated short-circuit currents, Assay D (single concentration of 1 μM)
Assay type: cell-based
Details: with 44 nM potentiator and 18 μM Tezacaftor, 20% human serum; for D activity at 1 μM (%): 18-24 hours
Description: Ussing chamber experiments were performed using human bronchial epithelial (HBE) cells derived from CF subjects heterozygous for F508del and a minimal function CFTR mutation (F508del/MF-HBE) and cultured as previously described (Neuberger T, Burton B, Clark H, Van Goor F Methods Mol Biol 2011:741:39-54). After four days the apical media was removed, and the cells were grown at an air liquid interface for >14 days prior to use.
To isolate the CFTR-mediated short-circuit (ISC) current, F508del/MF-HBE grown on Costar® Snapwell™ cell culture inserts were mounted in an Ussing chamber and the transepithelial ISC was measured under voltage-clamp recording conditions (Vhold=0 mV) at 37° C. The basolateral solution contained (in mM) 145 NaCl, 0.83 K2HPO4, 3.3 KH2PO4, 1.2 MgCl2, 1.2 CaCl2, 10 Glucose, 10 HEPES (pH adjusted to 7.4 with NaOH) and the apical solution contained (in mM) 145 NaGluconate, 1.2 MgCl2, 1.2 CaCl2, 10 glucose, 10 HEPES (pH adjusted to 7.4 with NaOH) and 30 μM amiloride to block the epithelial sodium channel. Forskolin (20 μM) was added to the apical surface to activate CFTR, followed by apical addition of a CFTR inhibitor cocktail consisting of BPO, GlyH-101, and CFTR inhibitor 172 (each at 20 μM final assay concentration) to specifically isolate CFTR currents. The CFTR-mediated ISC (μA/cm^2) for each condition was determined from the peak forskolin response to the steady-state current following inhibition.
The activity of the CFTR corrector compounds on the CFTR-mediated ISC was determined in Ussing chamber studies as described above. The F508del/MF-HBE cell cultures were either incubated with the corrector compounds at a range of concentrations in combination with 33 nM (6R,12R)-17-amino-12-methyl-6,15-bis(trifluoromethyl)-13,19-dioxa-3,4,18-triazatricyclo[12.3.1.12,5]nonadeca-1(18),2,4,14,16-pentaen-6-ol and 18 μM Tezacaftor or were incubated with the corrector compounds at a single fixed concentration of 1 μM in combination with 44 nM (6R,12R)-17-amino-12-methyl-6,15-bis(trifluoromethyl)-13,19-dioxa-3,4,18-triazatricyclo[12.3.1.12,5]nonadeca-1(18),2,4,14,16-pentaen-6-ol and 18 μM Tezacaftor for 18-24 hours at 37° C. and in the presence of 20% human serum. The concentration of corrector compounds with 44 nM or 33 nM (6R,12R)-17-amino-12-methyl-6,15-bis(trifluoromethyl)-13,19-dioxa-3,4,18-triazatricyclo[12.3.1.12,5]nonadeca-1(18),2,4,14,16-pentaen-6-ol and 18 μM Tezacaftor during the 18-24 hours incubations was kept constant throughout the Ussing chamber measurement of the CFTR-mediated ISC to ensure compounds were present throughout the entire experiment. The efficacy and potency of the putative F508del correctors was compared to that of the known Vertex corrector, (14S)-8-[3-(2-{Dispiro[2.0.2.1]heptan-7-yl}ethoxy)-1H-pyrazol-1-yl]-12,12-dimethyl-2λ^6-thia-3,9,11,18,23-pentaazatetracyclo[17.3.1.111,14.05,10]tetracosa-1(22),5,7,9,19(23),20-hexaene-2,2,4-trione, in combination with 18 μM Tezacaftor and 1 μM Ivacaftor.
• Assay A: 0.1 μM to 25 μM, 6 concentrations • Assay B: 0.00001 μM to 25 μM, 12 concentrations • Assay C: 0.026 μM to 25 μM, 6 concentrations • Assay D: Activity at single concentration of 1 μM

Row | D activity at 1 μM (%) | D act. at 1 μM (%) | Compound
1 | +++ (+++ is >60%) |  | Cc1cccc(C)c1-c1cc2nc(n1)NS(=O)(=O)c1cccc(c1)C(=O)N(Cc1cnc3oc(C4CC4)cc3n1)[C@@H](C1CC(C)(C)C1)CO2 [Compound I-163]
2 | +++ (+++ is >60%) |  | Cc1cccc(C)c1-c1cc2nc(n1)NS(=O)(=O)c1cccc(c1)C(=O)N(Cc1cnc3oc(C(C)C)cc3n1)[C@H](CC(C)(C)C(F)(F)F)CO2 [Compound I-60]
3 | +++ (+++ is >60%) |  | Cc1cccc(C)c1-c1cc2nc(n1)NS(=O)(=O)c1cccc(c1)C(=O)N(Cc1cnc3oc(C(C)C)cc3n1)[C@H](CC(C)C)CCO2 [Compound I-5]
4 | +++ (+++ is >60%) |  | Cc1cccc(C)c1-c1nc2nc(c1C)OC[C@@H](CC1(C)CC1)N(Cc1cnc3oc(C4(C)CC4)cc3n1)C(=O)c1cccc(c1)S(=O)(=O)N2 [Compound I-232]
5 |  | +++ (+++ is >60%) | Cc1cccc(C)c1-c1cc2nc(n1)NS(=O)(=O)c1cccc(c1)C(=O)N(Cc1cnc3oc(C(C)(C)C)cc3n1)[C@H](CC1CCCCC1)CO2 [IV-9]
6 | +++ (+++ is >60%) |  | Cc1cccc(C)c1-c1cc2nc(n1)NS(=O)(=O)c1cccc(c1)C(=O)N(Cc1cnc3oc(C(C)C)c(C(F)(F)F)c3n1)[C@H](CCC1(C)CC1)CO2 (stereo in doubt) [Compound I-127]
7 | ++ (++ is 30-60%) |  | Cc1cccc(C)c1-c1cc2nc(n1)NS(=O)(=O)c1cccc(c1)C(=O)N(Cc1cnc3oc(C4CC4)cc3n1)[C@@H](CC1CC(C)(C)C1)CO2 (single isomer, unassigned) [Compound I-166, 12-[(6-cyclopropylfuro[2,3-b]pyrazin-2-yl)methyl]-11-[(3,3-dimethylcyclobutyl)methyl]-6-(2,6-dimethylphenyl)-2,2-dioxo-9-oxa-2λ^6-thia-3,5,12,19-tetrazatricyclo[12.3.1.14,8]nonadeca-1(18),4(19),5,7,14,16-hexaen-13-one]
8 |  | +++ (+++ is >60%) | Cc1cccc(C)c1-c1cc2nc(n1)NS(=O)(=O)c1cccc(c1)C(=O)N(Cc1cnc3oc([C@](C)(O)CO)cc3n1)[C@H](CC1(C)CC1)CO2 (single isomer, unassigned) [IV-14]
9 | +++ (+++ is >60%) |  | Cc1cccc(C)c1-c1cc2nc(n1)NS(=O)(=O)c1cccc(c1)C(=O)N(Cc1cnc3oc(C4CC4)cc3n1)[C@H](COC1CC1)CO2 [Compound I-115]
10 |  | +++ (+++ is >60%) | Cc1cccc(C)c1-c1cc2nc(n1)NS(=O)(=O)c1cccc(c1)C(=O)N(Cc1cnc3oc(C#N)cc3n1)[C@H](CC1(C)CC1)CO2 [IV-28]
11 | +++ (+++ is >60%) |  | Cc1cccc(C)c1-c1cc2nc(n1)NS(=O)(=O)c1cccc(c1)C(=O)N(Cc1cnc3cn(C(C)C)nc3n1)[C@@H](CCC1(C)CC1)CO2 [Compound I-129]

Continued, compound first:

Row | Compound | D activity at 1 μM (%) | D act. at 1 μM (%)
12 | Cc1cccc(C)c1-c1cc2nc(n1)NS(=O)(=O)c1cccc(c1)C(=O)N(Cc1ccc3oc(C4(C)CC4)cc3n1)[C@H](COC(C)C)CO2 [Compound I-241] | +++ (+++ is >60%) | 
13 | Cc1cccc(C)c1-c1nc2nc(c1C)OC[C@@H](CC13CC(C1)C3)N(Cc1cnc3oc(C(C)(C)C)cc3n1)C(=O)c1cccc(c1)S(=O)(=O)N2 [Compound I-223] | +++ (+++ is >60%) | 
14 | Cc1cccc(C)c1-c1cc2nc(n1)NS(=O)(=O)c1cccc(c1)C(=O)N(Cc1cnc3cc(C(C)C)n(C)c3n1)[C@H](COC1CCCC1)CO2 [Compound I-121, (11R)-11-(Cyclopentoxymethyl)-6-(2,6-dimethylphenyl)-12-[(6-isopropyl-5-methyl-pyrrolo[2,3-b]pyrazin-3-yl)methyl]-2,2-dioxo-9-oxa-2λ^6-thia-3,5,12,19-tetrazatricyclo[12.3.1.14,8]nonadeca-1(18),4(19),5,7,14,16-hexaen-13-one] | +++ (+++ is >60%) | 
15 | Cc1cccc(C)c1-c1cc2nc(n1)NS(=O)(=O)c1cccc(c1)C(=O)N(Cc1cnc3cc(C4(C)CC4)n(C)c3n1)[C@@H](C(C1CCC1)C1CCC1)CO2 (single isomer, unassigned) [IV-21, 11-[di(cyclobutyl)methyl]-6-(2,6-dimethylphenyl)-12-[[5-methyl-6-(1-methylcyclopropyl)pyrrolo[2,3-b]pyrazin-3-yl]methyl]-2,2-dioxo-9-oxa-2λ^6-thia-3,5,12,19-tetrazatricyclo[12.3.1.14,8]nonadeca-1(18),4(19),5,7,14,16-hexaen-13-one] |  | ++ (++ is 30-60%)
16 | Cc1cccc(C)c1-c1cc2nc(n1)NS(=O)(=O)c1cccc(c1)C(=O)N(Cc1cnc3oc(C(C)C)cc3n1)[C@H](C[C@@H]1CCCCO1)CO2 [Compound I-8] | +++ (+++ is >60%) | 
17 | Cc1cccc(C)c1-c1cc2nc(n1)NS(=O)(=O)c1cccc(c1)C(=O)N(Cc1cnc3oc(C(C)C)cc3n1)[C@H](C=C1CCC1)CO2 [Compound I-153] | +++ (+++ is >60%) | 
18 | Cc1cccc(C)c1-c1cc2nc(n1)NS(=O)(=O)c1cccc(c1)C(=O)N(Cc1cnc3oc(C(C)C)cc3n1)[C@H](CC(C)(C)C)CC2 [Compound I-173] | +++ (+++ is >60%) | 
19 | Cc1cccc(C)c1-c1cc2nc(n1)NS(=O)(=O)c1cccc(c1)C(=O)N(Cc1cnc3c(n1)C(=O)N(C(C)C)[C@@H]3C)[C@H](CC(C)(C)C)CO2 (stereo in doubt) [III-23] | +++ (+++ is >60%) | 
20 | Cc1cccc(C)c1-c1nc2nc(c1C)OC[C@@H](COC(C)C)N(Cc1cnc3cc(C(C)C)n(C)c3n1)C(=O)c1cccc(c1)S(=O)(=O)N2 [Compound I-189] | +++ (+++ is >60%) | 
21 | Cc1cccc(C)c1-c1cc2nc(n1)NS(=O)(=O)c1cccc(c1)C(=O)N(Cc1cnc3c(n1)C(=O)N(C(C)C)C3)[C@@H](CCC1(C)CC1)CO2 (stereo in doubt) [III-22] | +++ (+++ is >60%) | 
22 | Cc1cccc(C)c1-c1cc2nc(n1)NS(=O)(=O)c1cccc(c1)C(=O)N(Cc1cnc3cc(C(C)C)n(C)c3n1)[C@H](CC1(F)CCC1)CO2 [Compound I-125] | +++ (+++ is >60%) | 
23 | Cc1cccc(C)c1-c1cc2nc(n1)NS(=O)(=O)c1cccc(c1)C(=O)N(Cc1cnc3c(n1)CN(C(C)C)C3=O)[C@@H](CCC1(C)CC1)CO2 (stereo in doubt) [III-19] | +++ (+++ is >60%) | 
24 | Cc1cccc(C)c1-c1cc2nc(n1)NS(=O)(=O)c1cccc(c1)C(=O)N(Cc1ncc3oc(C(C)(C)C)cc3n1)[C@H](CC(C)(C)C)CO2 [Compound I-250] | +++ (+++ is >60%) | 
25 | Cc1cccc(C)c1-c1nc2nc(c1C)OC[C@@H](CC(C)(C)C)N(Cc1ccc3oc(C4(C)CC4)cc3n1)C(=O)c1cccc(c1)S(=O)(=O)N2 [Compound I-235] | +++ (+++ is >60%) | 
26 | Cc1cccc(C)c1-c1cc2nc(n1)NS(=O)(=O)c1cccc(c1)C(=O)N(Cc1cnc3oc(C)c(C4CC4)c3n1)[C@H](CC(C)(C)C)CO2 [Compound I-28] | +++ (+++ is >60%) | 
27 | Cc1cccc(C)c1-c1cc2nc(n1)NS(=O)(=O)c1cccc(c1)C(=O)N(Cc1cnc3cc(C(C)C)n(C)c3n1)C(CC(C)(C)C1CC1)CO2 (centres unmarked) [Compound I-108] | +++ (+++ is >60%) | 
28 | Cc1cccc(C)c1-c1cc2nc(n1)NS(=O)(=O)c1cccc(c1)C(=O)N(Cc1cnc3cn(C(C)C)nc3n1)[C@H](CC(C)(C)C)CO2 [Compound I-111] | +++ (+++ is >60%) | 
29 | Cc1cccc(C)c1-c1cc2nc(n1)NS(=O)(=O)c1cccc(c1)C(=O)N(Cc1nc3cc(C(C)(C)C)oc3cc1F)[C@H](CC13CC(C1)C3)CO2 [Compound I-244] | +++ (+++ is >60%) | 
